For five compounds, MIC results are on record in ChEMBL document CHEMBL6182832, “Design and synthesis of coumarin-based amphoteric antimicrobials with biofilm interference and immunoregulation effects” (RSC Med Chem, 2025).

Converted amounts (≈) assume the structure as drawn. Bounds are passed on as bounds.

What all share (format): functional
Holding throughout (settings): time 16-24 hrs, read-out: MIC100

Assay [1] concerns Staphylococcus aureus. As to the kind of experiment: Antibacterial activity against clinically isolated methicillin-resistant Staphylococcus aureus assessed as inhibition of bacterial growth measured after 16 to 24 hrs by broth microdilution method. In general terms: Dilution methods test growth across graded concentrations, often in twofold steps.
For assay [2], the system named is Escherichia coli. As to the kind of experiment: Antibacterial activity against clinically isolated Escherichia coli ATCC25922 assessed as inhibition of bacterial growth measured after 16 to 24 hrs by broth microdilution method.
In another assay the test system is Bacillus cereus. Nature of the assay: Antibacterial activity against clinically isolated Bacillus cereus CMCC63303 assessed as inhibition of bacterial growth measured after 16 to 24 hrs by broth microdilution method.
In a further assay the test system is Listeria monocytogenes. As to the kind of experiment: Antibacterial activity against clinically isolated Listeria monocytogenes CICC21662 assessed as inhibition of bacterial growth measured after 16 to 24 hrs by broth microdilution method.
The next assay concerns Bacillus subtilis. As to the kind of experiment: Antibacterial activity against clinically isolated Bacillus subtilis ATCC6633 assessed as inhibition of bacterial growth measured after 16 to 24 hrs by broth microdilution method.
Assay [3] relates to Staphylococcus aureus. Nature of the assay: Antibacterial activity against clinically isolated Staphylococcus aureus ATCC29213 assessed as inhibition of bacterial growth measured after 16 to 24 hrs by broth microdilution method.
In assay [4] the test system is Escherichia coli. Nature of the assay: Antibacterial activity against clinically isolated Escherichia coli DE17 assessed as inhibition of bacterial growth measured after 16 to 24 hrs by broth microdilution method.
Another assay has as its system Enterococcus faecalis. As to the kind of experiment: Antibacterial activity against clinically isolated Enterococcus faecalis ATCC29212 assessed as inhibition of bacterial growth measured after 16 to 24 hrs by broth microdilution method.

As for `CCCCN(CCCC)CCCCCCCCCCCCOc1cc(=O)oc2ccccc12`, the MIC with Staphylococcus aureus [1] was 4 µg/mL (≈ 8.74 µM); in the assay on Escherichia coli [2], greater than 256 µg/mL; in the assay on Bacillus cereus, 8 µg/mL (≈ 17.5 µM); in the assay with Listeria monocytogenes, 1 µg/mL (≈ 2.18 µM); with Bacillus subtilis, 1 µg/mL (≈ 2.18 µM); with Staphylococcus aureus [3] it was 4 µg/mL (≈ 8.74 µM). The MIC in the assay on Escherichia coli [4] is greater than 256 µg/mL; in the assay on Enterococcus faecalis it was 4 µg/mL (≈ 8.74 µM).
`O=c1cc(O)c2ccccc2o1` [4-HYDROXYCOUMARINS]: the MIC with Staphylococcus aureus [1] is greater than 256 µg/mL; with Escherichia coli [2], greater than 256 µg/mL; in the assay on Bacillus cereus it was greater than 256 µg/mL; in the assay with Listeria monocytogenes it was greater than 256 µg/mL; with Bacillus subtilis, greater than 256 µg/mL; in the assay with Staphylococcus aureus [3], 256 µg/mL (≈ 1580 µM). The MIC in the assay on Escherichia coli [4] and with Enterococcus faecalis was greater than 256 µg/mL throughout.
For the compound `CN[C@H](CC(C)C)C(=O)N[C@H]1C(=O)N[C@@H](CC(N)=O)C(=O)N[C@H]2C(=O)N[C@H]3C(=O)N[C@H](C(=O)N[C@H](C(=O)O)c4cc(O)cc(O)c4-c4cc3ccc4O)[C@H](O)c3ccc(c(Cl)c3)Oc3cc2cc(c3O[C@@H]2O[C@H](CO)[C@@H](O)[C@H](O)[C@H]2O[C@H]2C[C@](C)(N)[C@H](O)[C@H](C)O2)Oc2ccc(cc2Cl)[C@H]1O` [VANCOMYCIN], the MIC was greater than 256 µg/mL in the assay with Escherichia coli [2]; 0.5 µg/mL (≈ 0.345 µM) with Listeria monocytogenes; 0.5 µg/mL (≈ 0.345 µM) with Bacillus subtilis; greater than 256 µg/mL in the assay with Escherichia coli [4]; 2 µg/mL (≈ 1.38 µM) with Enterococcus faecalis.
`CCN(CC)CCCCOc1ccc2ccc(=O)oc2c1`: the MIC in the assay on Staphylococcus aureus [1], in the assay with Escherichia coli [2], in the assay on Staphylococcus aureus [3] and in the assay on Escherichia coli [4] was greater than 256 µg/mL throughout.
As for `CN(C)CCCCCCCCCCCCOc1cc(=O)oc2ccccc12`, the MIC in the assay with Staphylococcus aureus [1] is 4 µg/mL (≈ 10.7 µM); with Escherichia coli [2], greater than 256 µg/mL; in the assay with Staphylococcus aureus [3] it was 4 µg/mL (≈ 10.7 µM); in the assay on Escherichia coli [4] it was greater than 256 µg/mL.
